Reference: patent US20230087994A1, “TARGETED BIFUNCTIONAL DEGRADERS” (YALE UNIVERSITY, priority 2019, published 2023)

Key:
[1] = tested on: HepG2 cells; test: DNP-AF3-mediated endocytosis of fluorescently labeled α-DNP antibody by HepG2 cells (flow cytometry); assay type: cell-based, human; settings: 40 nM DNP-AF3, 100 nM antibody; FIG. 106
Procedure: The intracellular fluorescence of cells that were incubated at 37° C. with both fluorescently labeled α-DNP antibody and DNP-AF3 for a given amount of time was examined. Cells were then washed, removed from the plate with trypsin, and subjected to flow cytometry. Trypsin treatment is expected to cleave ASGPR and surface-bound α-DNP antibody from cells, and therefore the cellular fluorescence observed in these assays is expected to arise only from internalized antibodies.
It was then determined if reagents which inhibit ternary complex formation inhibit endocytosis mediated by DNP-AF3. In order to account for non-specific antibody association with cells, the mean fluorescence intensity of an aliquot of cells which had been treated with α-DNP antibody but not DNP-AF3 was subtracted from each reading. […] In the presence of 2.38 μM (0.1 mg/mL) ASOR, the cell population fluorescence was decreased to 4.66e5 (FIG. 105); at this ASOR concentration, ternary complex formation is decreased by approximately 70%. Because ternary complex is not inhibited completely at this concentration of ASOR, it is expected that productive endocytic events are still taking place.

[2] = tested on: HepG2 cells; test: DNP-GN3-mediated endocytosis of fluorescently labeled α-DNP antibody by adherent HepG2 cells; assay type: cell-based, human; settings: DNP-GN3-mediated uptake; FIG. 89
Procedure: It was next explored whether DNP-GN3 mediates the endocytosis of fluorescently labeled α-DNP antibody.
To explore the cellular mechanism of antibody uptake, cells were treated with chemical inhibitors of several endocytic pathways (FIG. 89).

[3] = tested on: HepG2 cells; test: MIF-GN3-mediated endocytosis of fluorescently labeled human MIF by HepG2 cells; settings: 100 nM MIF, 200 nM MIF-GN3; FIG. 132
Procedure: Human MIF protein was fluorescently labeled with Alexa 488 NHS ester, then incubated with HepG2 cells in the presence of varying levels of MIF-GN3.
Next, inhibitors of various endocytic pathways were utilized to determine if MIF-GN3 mediates MIF endocytosis in a manner consistent with ASGPR (FIG. 132).

[4] = target: human IgG (fluorescently labeled) (human); test: cell-based or functional assay

| Compound | effect of endocytic pathway inhibitors on fluorescence of the cell population [1] | effect of endocytic pathway inhibitors on intracellular fluorescence [2] | effect of endocytic pathway inhibitors on MIF-GN3-mediated MIF endocytosis [3] | endocytosis of Alexa 488-labeled human IgG by HepG2 cells (flow cytometry, six hours): FcIII-GN3 concentration giving maximal uptake [4] |
| --- | --- | --- | --- | --- |
| N=C(N)NC(=O)c1nc(Cl)c(N)nc1N [amiloride, Amiloride] | A decrease in cellular fluorescence | did not significantly decrease | did not impact cellular fluorescence significantly | – |
| C[C@@H]1[C@H](O)[C@@H](C)/C=C/C=C/CC/C=C/C=C/C=C/C=C/C(O[C@H]2O[C@H](C)[C@@H](O)[C@H](N)[C@@H]2O)CC2O[C@](O)(CC(O)C(O)CCC(O)CC(O)CC(O)CC(=O)O[C@H]1C)CC(O)C2C(=O)O (stereo partly drawn) [nystatin, Nystatin] | did not significantly decrease | did not significantly decrease | did not decrease | – |
| COc1ccc2c(c1)c(CC(=O)O)c(C)n2C(=O)c1ccc(Cl)cc1 [indomethacin, Indomethacin] | did not significantly decrease | – | did not decrease | – |
| FcIII-GN3 (oxidized cyclized form) (peptide) | – | – | – | 200 nM |
